Measured values from ChEMBL document CHEMBL1629470, “Synthesis, biological evaluation and docking studies of 4-amino-tetrahydroquinazolino[3,2-e]purine derivatives” (Eur J Med Chem, 2010).

Legend:
[1] = tested on: L1210; test: Cytotoxicity against mouse L1210 cells after 4 hrs by MTT assay; format: functional
[2] = molecular target: Proto-oncogene tyrosine-protein kinase Src (Homo sapiens) (UniProt P12931); test: Inhibition of Src at 10 uM after 20 mins
Sequence of Proto-oncogene tyrosine-protein kinase Src (Homo sapiens) (P12931 2-536 limits assumed): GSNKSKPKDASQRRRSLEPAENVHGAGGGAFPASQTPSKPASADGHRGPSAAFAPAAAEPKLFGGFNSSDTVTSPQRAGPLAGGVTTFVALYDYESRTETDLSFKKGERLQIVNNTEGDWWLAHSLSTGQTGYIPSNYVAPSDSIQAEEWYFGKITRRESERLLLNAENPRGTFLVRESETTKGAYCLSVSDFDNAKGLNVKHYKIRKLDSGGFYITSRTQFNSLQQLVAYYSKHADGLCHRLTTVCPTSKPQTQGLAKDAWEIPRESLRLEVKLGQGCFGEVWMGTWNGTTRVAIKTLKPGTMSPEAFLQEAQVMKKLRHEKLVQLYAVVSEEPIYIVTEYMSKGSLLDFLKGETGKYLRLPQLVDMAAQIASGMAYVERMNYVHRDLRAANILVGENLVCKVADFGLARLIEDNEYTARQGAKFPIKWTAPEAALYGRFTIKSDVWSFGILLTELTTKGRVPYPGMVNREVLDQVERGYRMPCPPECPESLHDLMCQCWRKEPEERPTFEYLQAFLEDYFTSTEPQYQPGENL

inhibition [2] [%]	Structure (SMILES)	Activity [1] [µM]
15	Cl.c1ccc(Nc2ncnc3c2nc2n3Cc3ccccc3N2CCN2CCOCC2)cc1	16.1
30	Brc1ccccc1Nc1ncnc2c1nc1n2Cc2ccccc2N1CCN1CCOCC1.Cl	21.9
20	Cl.Clc1ccccc1Nc1ncnc2c1nc1n2Cc2ccccc2N1CCN1CCOCC1	11.9

Continued, molecule first:

Structure (SMILES)	inhibition [2] [%]	Activity [1] [µM]
c1ccc(Nc2ncnc3c2nc2n3Cc3ccccc3N2)cc1	58	34.3
Nc1ncnc2c1nc1n2Cc2ccccc2N1	72	7.3
Cl.c1ccc(CNc2ncnc3c2nc2n3Cc3ccccc3N2CCN2CCOCC2)cc1	9	31
Nc1nc(Cl)nc2c1nc1n2Cc2ccccc2N1	49	23
CCN(CC)CCN1c2ccccc2Cn2c1nc1c(Nc3ccccc3)ncnc12.Cl	0	17.9
